Earlier results as cited in publication PMC10583817 (RSC Medicinal Chemistry, 2023).

System: WIN site of WDR5
Conditions: cited from earlier work

Cc1nc(F)ccc1-c1cc(Cn2ccn(C)c2=N)cc(C(=O)NCc2ccc(Cl)c(Cl)c2)c1 [WIN-IN-4]
binding activity: sub-nanomole
